Measurements as given in ChEMBL document CHEMBL1133944, “Identification of a series of oxadiazole-substituted alpha-isopropoxy phenylpropanoic acids with activity on PPARalpha, PPARgamma, and PPARdelta” (Bioorg Med Chem Lett, 2001).

What was measured:
[1] = target: T1, Peroxisome proliferator-activated receptor gamma (Homo sapiens, UniProt P37231); test: Agonist activity against human Peroxisome proliferator activated receptor gamma receptor in CV-1 cell was determined; format: functional, cell-based
T1 sequence (P37231 whole entry): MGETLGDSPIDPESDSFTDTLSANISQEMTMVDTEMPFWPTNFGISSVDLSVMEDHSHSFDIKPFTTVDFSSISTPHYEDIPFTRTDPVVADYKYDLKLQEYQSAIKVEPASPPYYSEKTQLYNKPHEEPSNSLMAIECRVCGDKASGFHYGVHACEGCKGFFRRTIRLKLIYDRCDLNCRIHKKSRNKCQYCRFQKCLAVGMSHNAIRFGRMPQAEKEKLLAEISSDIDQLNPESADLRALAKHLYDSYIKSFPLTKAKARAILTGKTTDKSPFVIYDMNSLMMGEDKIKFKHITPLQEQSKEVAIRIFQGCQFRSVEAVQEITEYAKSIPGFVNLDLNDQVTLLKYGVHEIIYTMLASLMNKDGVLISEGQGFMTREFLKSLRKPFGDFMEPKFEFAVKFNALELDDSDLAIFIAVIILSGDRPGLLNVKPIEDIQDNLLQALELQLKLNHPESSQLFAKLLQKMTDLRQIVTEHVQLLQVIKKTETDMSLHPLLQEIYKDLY

[2] = target: T2, Peroxisome proliferator-activated receptor delta (Homo sapiens, UniProt Q03181); test: Agonist activity against human PPAR delta receptor in CV-1 cell was determined; format: functional, cell-based
T2 sequence (Q03181 whole entry): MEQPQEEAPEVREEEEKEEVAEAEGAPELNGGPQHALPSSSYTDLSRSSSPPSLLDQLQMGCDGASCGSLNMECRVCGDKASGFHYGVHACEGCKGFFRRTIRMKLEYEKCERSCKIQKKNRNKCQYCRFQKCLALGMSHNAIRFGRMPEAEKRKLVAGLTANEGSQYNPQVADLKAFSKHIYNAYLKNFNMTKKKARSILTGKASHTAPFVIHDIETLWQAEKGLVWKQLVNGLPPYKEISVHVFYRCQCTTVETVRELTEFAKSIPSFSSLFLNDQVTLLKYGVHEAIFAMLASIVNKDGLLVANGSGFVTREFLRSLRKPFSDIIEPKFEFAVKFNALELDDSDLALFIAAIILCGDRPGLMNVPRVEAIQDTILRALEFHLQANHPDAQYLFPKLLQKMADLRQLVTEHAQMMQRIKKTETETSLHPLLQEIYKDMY

[3] = target: T3, Peroxisome proliferator-activated receptor alpha (Homo sapiens, UniProt Q07869); test: Agonist activity against human Peroxisome proliferator activated receptor alpha receptor in CV-1 cell was determined; format: functional, cell-based
T3 sequence (Q07869 whole entry): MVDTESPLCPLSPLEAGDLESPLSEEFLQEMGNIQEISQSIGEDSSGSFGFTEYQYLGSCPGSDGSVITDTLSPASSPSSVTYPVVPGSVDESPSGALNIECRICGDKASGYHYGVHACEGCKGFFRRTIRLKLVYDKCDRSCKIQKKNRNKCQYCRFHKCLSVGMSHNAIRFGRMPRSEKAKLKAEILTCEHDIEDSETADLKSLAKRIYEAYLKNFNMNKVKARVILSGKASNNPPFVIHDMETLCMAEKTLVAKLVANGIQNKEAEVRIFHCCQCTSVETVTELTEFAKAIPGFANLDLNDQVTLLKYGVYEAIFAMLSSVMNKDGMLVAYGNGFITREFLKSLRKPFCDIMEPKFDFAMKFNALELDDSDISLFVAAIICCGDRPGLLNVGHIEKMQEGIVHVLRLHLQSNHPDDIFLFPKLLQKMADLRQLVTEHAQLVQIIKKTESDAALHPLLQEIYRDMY

[4] = target: T4, Peroxisome proliferator-activated receptor delta (Homo sapiens) (UniProt Q03181); test: Percent activation for human Peroxisome proliferator activated receptor delta; format: functional
T4 sequence (whole entry): T2 sequence (Q03181 whole entry)

[5] = target: T1, Peroxisome proliferator-activated receptor gamma; test: Agonist activity against human peroxisome proliferator activated receptor gamma was determined; format: functional
[6] = target: T3, Peroxisome proliferator-activated receptor alpha; test: Agonist activity against human Peroxisome proliferator activated receptor alpha was determined; format: functional
[7] = target: T2, Peroxisome proliferator-activated receptor delta; test: Agonist activity against human Peroxisome proliferator activated receptor delta in CV-1 cell was determined; format: functional, cell-based
[8] = target: T1, Peroxisome proliferator-activated receptor gamma; test: Agonist activity against human peroxisome proliferator activated receptor gamma in CV-1 cell was determined; format: functional, cell-based
[9] = target: T3, Peroxisome proliferator-activated receptor alpha; test: Agonist activity against human Peroxisome proliferator activated receptor alpha in CV-1 cell was determined; format: functional, cell-based

| SMILES | EC50 [1] | EC50 [2] | EC50 [3] | other results |
| --- | --- | --- | --- | --- |
| CC(C)OC(Cc1ccc(OCc2noc(-c3ccccc3)n2)cc1)C(=O)O (stereo not drawn) | 79 nM | 10000 nM | 160 nM | – |
| CC(C)OC(Cc1ccc(OCc2noc(C3CCCCC3)n2)cc1)C(=O)O (stereo not drawn) | 230 nM | – | 240 nM | – |
| Cc1ccc(-c2nc(COc3ccc(CC(OC(C)C)C(=O)O)cc3)no2)cc1 (stereo not drawn) | 16 nM | 2500 nM | 25 nM | – |
| CC(C)OC(Cc1ccc(OCc2noc(-c3ccc(C(C)(C)C)cc3)n2)cc1)C(=O)O (stereo not drawn) | 3 nM | 5000 nM | 40 nM | – |
| CC(C)OC(Cc1ccc(OCCc2noc(-c3cccc(F)c3)n2)cc1)C(=O)O (stereo not drawn) | 2 nM | 4000 nM | 500 nM | – |
| CC(C)OC(Cc1ccc(OCc2noc(-c3ccc(OC(F)(F)F)cc3)n2)cc1)C(=O)O (stereo not drawn) | 63 nM | 7900 nM | 20 nM | – |
| CC(C)OC(Cc1ccc(OCc2noc(-c3cc(C(F)(F)F)cc(C(F)(F)F)c3)n2)cc1)C(=O)O (stereo in doubt; -1n) [listing 1 of 2 here] | – | – | – | Activation [4]: 40% |
| CC(C)OC(Cc1ccc(OCc2noc(-c3cc(F)cc(F)c3)n2)cc1)C(=O)O (stereo not drawn) | 100 nM | 160 nM | 40 nM | – |
| CC(C)OC(Cc1ccc(OCc2noc(-c3ccc(Cl)cc3)n2)cc1)C(=O)O (stereo not drawn) | 20 nM | 500 nM | 13 nM | – |
| CC(C)OC(Cc1ccc(OCCc2noc(-c3cc(C(F)(F)F)cc(C(F)(F)F)c3)n2)cc1)C(=O)O (stereo not drawn) | – | – | – | EC50 [5]: 4 nM; EC50 [6]: 50 nM; Activation [4]: < 40% |
| CC(C)OC(Cc1ccc(OCCc2noc(-c3ccccc3C(F)(F)F)n2)cc1)C(=O)O (stereo not drawn) | – | – | – | EC50 [7]: 2500 nM; EC50 [8]: 160 nM; EC50 [9]: 400 nM |
| CC(C)OC(Cc1ccc(OCCc2noc(-c3ccccc3)n2)cc1)C(=O)O (stereo not drawn) | 13 nM | – | 2000 nM | – |
| CC(C)OC(Cc1ccc(OCc2noc(-c3cc(C(F)(F)F)cc(C(F)(F)F)c3)n2)cc1)C(=O)O (stereo in doubt; (+)1n) [listing 1 of 2 here] | – | – | – | Activation [4]: 40% |
| CC(C)OC(Cc1ccc(OCc2noc(-c3cc(C(F)(F)F)cc(C(F)(F)F)c3)n2)cc1)C(=O)O (stereo in doubt; (+)1n) [listing 2 of 2 here] | – | – | – | EC50 [7]: 790 nM; EC50 [8]: 630 nM; EC50 [9]: 2500 nM |
| CC(C)OC(Cc1ccc(OCCc2noc(-c3cccc(Cl)c3)n2)cc1)C(=O)O (stereo not drawn) | 4 nM | 100 nM | 320 nM | – |
| Cc1ccccc1-c1nc(COc2ccc(CC(OC(C)C)C(=O)O)cc2)no1 (stereo not drawn) | 100 nM | 1600 nM | 40 nM | – |
| CC(C)OC(Cc1ccc(OCCc2noc(-c3cccc(C(F)(F)F)c3)n2)cc1)C(=O)O (stereo not drawn) | 6 nM | 500 nM | 200 nM | – |
| CC(C)OC(Cc1ccc(OCc2noc(-c3cc(C(F)(F)F)cc(C(F)(F)F)c3)n2)cc1)C(=O)O (stereo in doubt; -1n) [listing 2 of 2 here] | – | – | – | EC50 [7]: 630 nM; EC50 [8]: 32 nM; EC50 [9]: 4 nM |
| Cc1cccc(-c2nc(COc3ccc(CC(OC(C)C)C(=O)O)cc3)no2)c1 (stereo not drawn) | 50 nM | 1600 nM | 79 nM | – |

Further lines, with some results ahead:

| EC50 [1] | EC50 [2] | EC50 [3] | SMILES | other results |
| --- | --- | --- | --- | --- |
| 4 nM | 7900 nM | 13 nM | CC(C)OC(Cc1ccc(OCc2noc(-c3ccc(C(C)C)cc3)n2)cc1)C(=O)O (stereo not drawn) | – |
| 25 nM | 500 nM | 32 nM | CC(C)OC(Cc1ccc(OCc2noc(-c3ccc(C(F)(F)F)cc3)n2)cc1)C(=O)O (stereo not drawn) | – |
| 40 nM | – | 790 nM | CC(C)OC(Cc1ccc(OCCc2noc(-c3ccc(F)cc3)n2)cc1)C(=O)O (stereo not drawn) | – |
| 32 nM | 320 nM | 6 nM | CC(C)OC(Cc1ccc(OCc2noc(-c3cc(C(F)(F)F)cc(C(F)(F)F)c3)n2)cc1)C(=O)O (stereo not drawn) | – |
| 32 nM | 790 nM | 40 nM | CC(C)OC(Cc1ccc(OCc2noc(-c3ccc(Br)cc3)n2)cc1)C(=O)O (stereo not drawn) | – |
| 200 nM | 7900 nM | 160 nM | CC(C)OC(Cc1ccc(OCc2noc(-c3ccc(F)cc3)n2)cc1)C(=O)O (stereo not drawn) | – |
| 25 nM | – | 400 nM | CC(C)OC(Cc1ccc(OCCc2noc(-c3ccc(Cl)cc3)n2)cc1)C(=O)O (stereo not drawn) | – |
| 100 nM | 7900 nM | 79 nM | CC(C)OC(Cc1ccc(OCc2noc(-c3cccc(F)c3)n2)cc1)C(=O)O (stereo not drawn) | – |
